Consider 87 molecules from a melting point compilation (Tetko et al.; mined from patent text by program, amines drawn as free bases though some values may be those of a salt).

By melting point is commonly meant the temperature of the solid-liquid transition.

Take `CCc1cc(-c2ccc(Cl)cc2)nc2c(C(=O)O)cnn12`: the melting point was found to be 227 °C.

`Cc1cc(C)n(-c2nccc(Nc3ccc(Cl)cc3)n2)n1` had a melting point of 136 to 140 °C.

The molecule `Cc1cc(-c2nc3cccnn3c2-c2ccnc(NC(=O)NCC(F)(F)F)c2)ccc1F` had a melting point of 229 to 230 °C.

In turn, `CCOC(=O)c1cc(-c2ccc(N)cc2)n(-c2ccc(F)cc2)n1` showed a melting point of 158 to 160 °C.

The molecule `O=C(NCCO)c1cccc(-c2ccc3[nH]cc(-c4ccc(Cl)cc4Cl)c3c2)c1` showed a melting point of 140 to 141 °C.

Take `COC(=O)c1cccn1CC(I)=C(I)I`: the melting point lay within 88 to 90 °C.

Molecule `COc1cc(OCCCN2CCOCC2)c(C=CC(=O)c2ccc(C(N)=O)cc2)cc1-c1cccs1` had a melting point of 81 to 83 °C.

For the molecule `Nc1cccc2snnc12`, the melting point worked out at 67 °C.

Regarding `CC(C)CCSc1cc(C(=O)O)cc([N+](=O)[O-])c1-c1ccccc1`, the melting point is 143 to 144 °C.

Molecule `COc1cccc(/C(C#N)=C/c2ccc(OC)c(OC3CCCC3)c2)c1` registered a melting point of 83 to 85 °C.

Turning to `O=C(NNC(=O)c1cccc([N+](=O)[O-])c1)c1ccc([N+](=O)[O-])cc1`, the melting point is 250 to 251 °C.

For the molecule `c1ccc2c3c([nH]c2c1)CNCC3`, the melting point fell in the range of 190 to 191 °C.

With `COC(=O)COc1ccc(CC(C)NCC(O)c2cc3ccccc3o2)cc1C` (configuration not stated), the melting point lay within 115 to 130 °C.

In turn, `O=C(NCCCCCCNC(=O)N(O)Cc1ccccc1)N(O)Cc1ccccc1` showed a melting point of 181 to 182 °C.

The molecule `COc1ccc(C(=O)Nc2c(Cl)cc(N)cc2Cl)cc1OC1CCCC1` returned a melting point of 170 to 172 °C.

For `COc1cc(C=C(C#N)C(=O)Nc2cccc(Cl)c2)cc(F)c1O`, the melting point turned out to be 235 °C.

For the molecule `N#Cc1ccc([C@H]2[C@@H]3C(=O)N(Cc4ccc5c(c4)OCO5)C(=O)[C@@H]3[C@@H]3CSCN32)cc1` (racemic), the melting point fell in the range of 142 to 143 °C.

`CNc1cc(F)ccc1C(=O)Cc1nnn[nH]1` displayed a melting point of 214 to 216 °C.

In turn, `CCOC(=O)c1c(CN2CCCC2=O)nc2sc3c(c2c1-c1ccc2c(c1)OCO2)CCN(C(=O)c1ccccc1)C3` returned a melting point of 270 to 271 °C.

As to `CC(C)OC(=O)Nc1cccc(-c2ccnc3c(C(=O)c4ccco4)cnn23)c1`, the melting point is 140 to 143 °C.

Molecule `C(=C\c1nc(COc2ccc(CCCn3cnnn3)cc2)co1)/c1ccccc1` returned a melting point of 147 to 148 °C.

For `CC(=O)c1ccc(OCCCCN2C(=O)c3ccccc3C2=O)cc1`, the melting point was 112 to 114 °C.

In turn, `O=C(N[C@H]1C[C@H](C(=O)O)Nc2cc(Cl)cc(Cl)c21)C1CCCCC1` (relative stereo) gave a melting point of 190 to 195 °C.

For `CC(C)(C)[C@@H](O)c1cccc(-c2ccc(OCCO)cc2)n1`, the melting point is 104 °C.

`Cc1cn(-c2cccc(N)c2)cn1`: the melting point fell in the range of 117 to 119 °C.

Take `COc1cc(O)c(CC=C(C)C)c(O)c1C(=O)C=Cc1ccc(O)cc1`: the melting point worked out at 172 °C.

In turn, `Clc1ccc(-c2csc(-c3cnccc3N3CCOCC3)n2)cc1` displayed a melting point of 169 °C.

Regarding `CCOC(=O)C1=C(C)NC(CF)=C(C(=O)OCC)C1c1ccccc1C(F)(F)F` (configuration not stated), the melting point is 84 to 86 °C.

For the molecule `CC(=O)OC1C(COC(=O)c2ccccc2)OC(n2ccc(=O)[nH]c2=O)C1F` (configuration not stated), the melting point was 179 to 180 °C.

The molecule `N#Cc1cccc2c1CC(=NN)c1ccccc1S2` came in with a melting point of 175 to 177 °C.

With `O=C(c1ccc(F)cc1)N1CCCC(F)(c2nc(-c3ccc[nH]3)no2)C1` (configuration not stated), the melting point lay within 115 to 118 °C.

`CCN1C(=O)C2=C(c3cccc(Cl)c3)N(CC)C(=O)C2=C1c1cccc(Cl)c1` came in with a melting point of 203 to 205 °C.

On to `C#CCn1c(C(F)(F)F)nc2cc(F)c(-n3c(=O)cc(C(F)(F)F)n(C)c3=O)cc21`, for which the melting point was in the range of 104 to 105 °C.

`NC(=O)CCCCCN1CCN(c2csc3cc(F)ccc23)CC1`: the melting point was in the range of 141 to 142 °C.

The molecule `CCc1cnc(CC(C#Cc2ccccc2)c2ccc(OC)c(OC3CCCC3)c2)o1` (racemic) displayed a melting point of 94 to 96 °C.

In turn, `COc1cc(OC)cc(OC(=O)NC(=O)C(c2ccccc2)c2ccccc2)c1` yielded a melting point of 150 to 152 °C.

The molecule `CC(C)(C)OC(=O)N1CCN(c2ccc(OC[C@H]3CCn4cc([N+](=O)[O-])nc4O3)cc2)CC1` registered a melting point of 207 to 208 °C.

In turn, `Cc1cc2c(c(C)c1N)C(c1ccccc1)CO2` (configuration not stated) registered a melting point of 127 to 128 °C.

In turn, `COc1ccc2[nH]c([S+]([O-])Cc3ncc(C)c(OC)c3C)nc2n1` (configuration not stated) showed a melting point of 224 to 226 °C.

As to `Nc1ncc(-c2cccc3ccccc23)o1`, the melting point was 155 to 162 °C.

`NC(=O)N(O)C/C=C/c1cccc(C2=NOC(c3ccc(F)cc3)C2)c1` (configuration not stated): the melting point was in the range of 159 to 160 °C.

Molecule `CC(C)Oc1cc(/C=C/S(=O)(=O)NC(=O)OC(C)(C)C)n(Cc2ccc(Cl)cc2Cl)n1` gave a melting point of 152 to 153 °C.

Take `Cn1cc(-c2ccc3c(ccn3-c3ccc(F)cc3)c2)cn1`: the melting point lay within 144 to 145 °C.

As for `COC(=O)[C@H]1CC[C@H](c2[nH]nc3c2C(=O)c2c(NC(=O)NN4CCOCC4)cccc2-3)CC1`, the melting point lay in the range of 259 to 261 °C.

`CNC(=O)Oc1ccc(SC)c2c1CCCC2` displayed a melting point of 146 to 147 °C.

The molecule `CCOC(=O)NC(=S)NCC(C)C` came in with a melting point of 50 to 52 °C.

`CC1C(=O)CN[C@H]2c3ccc(Cl)cc3CC[C@H]12` (some centres not stated) displayed a melting point of 71.5 to 73 °C.

On to `N#Cc1c(N2CCN(C(=O)c3ccco3)CC2)c2cc(F)cnc2[nH]c1=O`, for which the melting point came to 312 °C.

Take `N#Cc1ccc(Nc2nc(Oc3c(F)cccc3F)ccc2[N+](=O)[O-])cc1`: the melting point was in the range of 234 to 236 °C.

As to `CC#Cc1ccc(-c2ccc(-c3ccc(CCCCC)c(F)c3F)cc2)cc1`, the melting point came to 127 °C.

`CCCCCCCCOc1ccc(-c2ncc(OC(=O)[C@H]3CCCO3)cn2)cc1` came in with a melting point of 90 °C.

Turning to `Cn1cc(CO)c(=O)c2ccc(F)cc21`, the melting point was in the range of 219 to 222 °C.

On to `CC(C)(CO)NC(=O)c1ccncc1C1=CCCc2ccccc21`, for which the melting point was 157 °C.

`CC(C)C(=O)c1ccc(N2CCN(C)CC2)cc1`: the melting point lay in the range of 74 to 76 °C.

The molecule `CC1(C)Oc2ccc(C#N)cc2C(n2nc(-c3c(-c4ccccc4)nn4ccccc34)ccc2=O)C1O` (configuration not stated) returned a melting point of 209 to 210 °C.

With `CCCCCCCCN(C[C@H]1CC[C@@H](CN(CCCCCCCC)C(=O)Nc2ccc(N(C)C)cc2)CC1)C(=O)Nc1ccc(N(C)C)cc1`, the melting point lay within 105 to 107 °C.

Turning to `CCN(CC)C(=O)c1c(O)c(=O)cc(C)n1C`, the melting point lay within 128 to 130 °C.

With `Clc1ccc2c(c1)C1(CO1)c1ccccc1C21CO1` (configuration not stated), the melting point lay within 61 to 67 °C.

As for `O=C1NCCc2c(-c3ccc4ccccc4c3)[nH]c3cccc1c23`, the melting point was 261 to 262 °C.

`COc1cc(OCC(CO)CO)c(C=CC(=O)c2ccc(S(=O)(=O)Nc3cc(C)on3)cc2)cc1-c1cccs1` had a melting point of 165 to 166 °C.

On to `COc1cc(O)ccc1N`, for which the melting point lay within 168 to 170 °C.

For the molecule `CCCC1=NN(c2ccccc2C(=O)O)C(=O)C1=CNc1ccccc1CC`, the melting point came to 127 °C.

In turn, `Cc1c(SCCCCSCCn2c([N+](=O)[O-])cnc2C)ccnc1CO` registered a melting point of 86 to 87 °C.

As for `OC1CCN(c2ccccc2)C12CCN(C1CC3CCCCCC3C1)CC2` (configuration not stated), the melting point was found to be 219 °C.

In the case of `O=S(=O)(Nc1cccc(Cl)c1Cl)c1cc(S(=O)(=O)Nc2cccc(Cl)c2Cl)c2cc(O)ccc2c1`, the melting point was in the range of 117 to 119 °C.

Take `CC(=O)Nc1nc(CCc2ccc(CCBr)cc2)cs1`: the melting point lay in the range of 153 to 154 °C.

Turning to `CCCCCCCCCCCCSC(=O)CS(=O)(=O)Nc1c(C(C)C)cccc1C(C)C`, the melting point is 58 to 60 °C.

`Cc1c(F)c(F)cc2c(=O)c(C(=O)O)cn(-c3cc(O)c(F)cc3F)c12`: the melting point lay in the range of 270 to 278 °C.

`COc1ccc(C(C)N(C)CCCOc2ccc(S(=O)(=O)c3c(C(C)C)cn4ccccc34)cc2)cc1` (configuration not stated): the melting point is 140 to 144 °C.

For `CN(C)Cc1ccc(C(=O)Nc2nc(-c3ccco3)c(C(=O)C3CCOCC3)s2)cc1`, the melting point fell in the range of 109 to 112 °C.

For the molecule `O=C(O)C(=O)CC(=O)c1cn(CCCCc2ccccc2)c2ccccc2c1=O`, the melting point was in the range of 136 to 138 °C.

`CC(=O)c1ccc(Nc2ccccc2C(C)=C(Cl)Cl)cc1` gave a melting point of 81 to 82 °C.

Turning to `COC(=O)c1c2snnc2nn1C`, the melting point is 115 to 121 °C.

As for `COc1cc(C2CCN(C3COC3)CC2)ccc1Nc1ncc2ccc(-c3ccccc3OC)n2n1`, the melting point lay in the range of 78 to 85 °C.

Turning to `c1cnc(N2CCN(Cc3nc4ccccc4[nH]3)CC2)nc1`, the melting point lay in the range of 198 to 200 °C.

`CC(C)Sc1cc(C(C)(C)C)c(O)c(C(C)(C)C)c1` returned a melting point of 80 to 82 °C.

The molecule `O=C(NCc1ccccc1)C1c2ccccc2-c2ccccc21` had a melting point of 195 to 200 °C.

Consider `COc1cc2c(cc1OC)C1=C(C#N)SCC(=O)N1CC2`, for which the melting point was in the range of 186 to 187 °C.

As to `CSc1nc(NS(=O)(=O)c2ccc(C(C)(C)C)cc2)c(-c2ccc(C)cc2)c(OCCOCc2ccccc2)n1`, the melting point is 115 to 116 °C.

In the case of `C=C(C)C=CCC(C)C1CCC2(C)C1(C)CCC1C3(C)CCC(OC(C)=O)CC3CCC12C` (configuration not stated), the melting point was in the range of 120 to 125 °C.

Molecule `COC(=O)c1ccc2c(c1)C(=O)c1ccccc1CO2` had a melting point of 128 to 129 °C.

For `O=C(NC1C2CC3CC(C2)CC1C3)c1cc(-c2ccc(Cl)cc2)n(Cc2ccc(Cl)cc2Cl)n1` (configuration not stated), the melting point is 154 °C.

`CC(C)N(CCOc1ccc2oc3ccc(OCCN(C(C)C)C(C)C)cc3c2c1)C(C)C`: the melting point lay in the range of 47 to 49 °C.

Take `O=C(NCc1ccccn1)c1cc(N2CCN(Cc3ccc(F)cc3)C2=O)n[nH]1`: the melting point was 235 to 237 °C.

For `COc1ccc(C2Cc3cc(C(F)(F)F)ccc3NC(=O)C2COS(=O)(=O)c2ccc(C)cc2)cc1` (configuration not stated), the melting point lay in the range of 170 to 172 °C.

Regarding `COC(=O)NC(=S)Nc1cc(C(=O)c2ccccc2)ccc1NCc1ccccc1`, the melting point was 75 to 79 °C.

In turn, `Clc1ccc2nc(N3CCCCC3)nc(N3CCCCC3)c2c1` returned a melting point of 115 to 118 °C.
